Results published in PMC6917698, “One-Pot Radiosynthesis and Biological Evaluation of a Caspase-3 Selective 5-[^123,125I]iodo-1,2,3-triazole derived Isatin SPECT Tracer” (Scientific Reports, 2019).

Experiments:
[1] = Log D measurement (n-octanol/PBS, gamma counting); assay type: physicochemical; details: measured with 125I-labelled compound
[2] = test system: SW1222 tumour-bearing mice; assay: Ex vivo biodistribution in SW1222 tumour-bearing mice; details: for Uptake in tumour: SW1222 xenograft, 60 min after i.v. injection
[3] = target: T1, Recombinant human caspase-3 (Homo sapiens, UniProt P42574); assay: Caspase enzyme inhibition assay (fluorogenic Ac-DEVD-AMC), caspase-3
T1 sequence (P42574 29-175 limits assumed): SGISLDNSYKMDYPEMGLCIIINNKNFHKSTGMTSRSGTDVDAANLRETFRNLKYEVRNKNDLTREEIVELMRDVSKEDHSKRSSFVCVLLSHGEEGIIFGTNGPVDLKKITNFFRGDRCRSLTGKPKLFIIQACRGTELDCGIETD
T1 sequence (P42574 176-277 limits assumed): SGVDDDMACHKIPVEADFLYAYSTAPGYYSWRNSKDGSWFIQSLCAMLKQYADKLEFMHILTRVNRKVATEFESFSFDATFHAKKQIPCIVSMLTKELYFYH

[4] = target: Recombinant human caspase-8 (Homo sapiens, UniProt Q14790); assay: Caspase enzyme inhibition assay (fluorogenic Ac-IETD-AMC), caspase-8
Chain of Recombinant human caspase-8 (Q14790 217-374 limits assumed): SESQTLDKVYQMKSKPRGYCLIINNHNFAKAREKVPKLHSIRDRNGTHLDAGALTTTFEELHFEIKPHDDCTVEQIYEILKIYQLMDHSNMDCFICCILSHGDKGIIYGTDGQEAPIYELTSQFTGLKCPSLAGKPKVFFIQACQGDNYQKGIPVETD
Chain of Recombinant human caspase-8 (Q14790 385-479 limits assumed): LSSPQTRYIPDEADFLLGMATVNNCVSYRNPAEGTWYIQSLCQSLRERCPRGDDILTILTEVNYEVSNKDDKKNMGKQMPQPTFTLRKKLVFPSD

[5] = Plasma metabolite analysis by HPLC; assay type: in vivo, mice; details: 15 min post-injection, i.v.
From the text: However, the overall uptake in the tumour was too low to allow in vivo imaging of tumour apoptosis with SPECT. […] It is unclear if this reflects drug induced apoptosis, or if the observed changes were due to swelling or increased local blood flow. […] A single polar radioactive metabolite was detected consistent with deiodination in vivo to give [^125I]iodide. However, it should be noted that a similar polar metabolite has been observed for the non-iodinated analog [^18F]ICM-11, and the low uptake in the thyroid (2.4 ± 1%ID/g at 60 min post-injection) and high liver uptake point to another metabolic route. In any case, the rapid metabolism makes FITI poorly suited as a tracer for in vivo imaging of apoptosis.
After an incubation period at 37 °C
linear correlation software (OriginPro 2015).
3.2. Plasma metabolite analysis
The supernatant was decanted and mixed with
3.3. Biodistribution studies in mice
week prior to initiation of studies.
College London Animal Ethics Committee.4
were rapidly excised and weighed.

[6] = control animals, 60 min after i.v. tail vein injection

Uptake in thyroid ([2]; 60 min post-injection) | Uptake in liver [2, 6] | Uptake in small intestine [2, 6] | Uptake in stomach [2, 6] | Uptake in tumour ([2]; control animals) | Uptake in tumour ([2]; etoposide-treated mice (50 mg/kg, 24 hrs, i.p.), p < 0.001 vs control) | Intact parent tracer in mouse plasma [5] | SMILES | logD [1] | Increase in tumour uptake after etoposide-induced cell death ([2]; SW1222 xenograft model, etoposide vs control) | Ki [3] | IC50 [4]
– | – | – | – | – | – | – | O=C1C(=O)N(Cc2nnn(CCF)c2I)c2ccc(S(=O)(=O)N3CCC[C@H]3COc3ccc(F)cc3F)cc21 [FITI, (S)-5-((2-((2,4-difluorophenoxy)methyl)pyrrolidin-1-yl)sulfonyl)-1-((1-(2-Fluoroethyl)-5-(Iodo)-1H-1,2,3-Triazol-4-yl)methyl)Indoline-2,3-dione] | 1.6 ± 0.1 | 2 fold | 0.0061 ± 0.0009 µM | > 50 µM
2.4 ± 1 %ID/g | 17 ± 6 %ID/g | 48 ± 13 %ID/g | 28 ± 25 %ID/g | 0.7 ± 0.4 %ID/g | 1.5 ± 0.2 %ID/g | less than 50% | O=C1C(=O)N(Cc2nnn(CCF)c2[125I])c2ccc(S(=O)(=O)N3CCCC3COc3ccc(F)cc3F)cc21 (stereo not shown) [[^125I]FITI] | – | – | – | –
– | – | – | – | – | – | – | O=C1C(=O)N(Cc2nnn(CCF)c2I)c2ccccc21 [compound 4] | 1.14 ± 0.06 | – | > 50 µM | –
